In US11352350B2, “IRAK degraders and uses thereof” (Kymera Therapeutics, Inc., priority 2018, dated 2022):

Legend:
IRAK4 [1] = molecular target: T1, IRAK4 (Homo sapiens (Human), UniProt Q9NWZ3); assay: hPBMC IRAK4 degradation flow assay; type: cell-based; conditions: hPBMC monocyte
Protocol: hPBMC IRAK4 degradation flow assay. Frozen PBMCs were thawed into RPMI with 10% FBS and allowed to recover. On the same day as thawed, PBMCs were plated in 96 well plate, 90 uL per well. Compound plates were prepared and a 10 point, 5-fold dilution was performed with a final DMSO concentration of 0.1%. Compound 10 μL per well was added, sealed and incubated at 37° C., 5% C02 for 20 hours (for 4 hour treatment, compounds were prepared and added the following day). […] Cells were spun down and washed two times with PBS/0.5% BSA, aspirated to pellet and placed into −80° C. freezer until further processing for flow. On the flow run day, PBMC plates were thawed and samples were transferred to PCR plates. The pre-perm staining cocktail (CD3 Ax488/CD8 BUV805/CD14 BUV395/CD16/56 BV711/CD19 BV785) was added to samples and incubated for 30 minutes at room temperature. Samples were washed two times and permeabilized with methanol for 10 minutes at 4° C. […] Samples were washed two times with PBS/BSA and run on a BD LSRFortessa. Mononuclear cells are gated by SSCH/FSCH and single cells. Monocytes are then gated through CD14 positive gate and lymphocytes are gated through CD14 negative gate. To determine absolute DC50s and max degradation values, MFI values were normalized to DMSO max and 20 hour 10 μM min control. Twenty hour dose curves were calculated using a 4 parameter logistic regression curve fit, no constraints (Top doses were removed if hook effects were observed and the bottom was constrained to 0).

OCI-LY10 = assay: CTG Cell Viability Assay - OCI-LY10; type: cell-based, human; conditions: Homo sapiens, OCI-Ly10, 96 h, OCI-LY10, 4 days; read-out: CTG Cell Viability Assay - OCI-LY10: Average external-IC50
Method in brief: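 Viability read by CellTiter-Glo luminescence after 4 days at 37° C under 5% CO2 with compound (top 10 μM final, 1:3 steps, 9 doses, DMSO 0.2%). Three-parameter logistic fit gave IC50.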

IRAK4 [2] = molecular target: T1, IRAK4; assay: IRAK4 MSD degradation in OCI-LY10; type: cell-based
Method in brief: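 Remaining IRAK4 quantified by electrochemiluminescent MSD sandwich assay with two anti-IRAK4 antibodies. Compounds were dosed as 8 concentrations in 1:3 steps from a 1 to 10 μM final top on OCI-LY10 cells, incubated 4 to 24 h at 37° C. under 5% CO2. DC50 fitted with a three-parameter logistic curve.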

[3] = 20 hrs, read-out: IRAK4 degradation in hPBMC monocyte: DC50
[4] = OCI-LY10, 4 hrs, MSD, read-out: IRAK4 MSD degradation in OCI-LY10 at 4 hrs: Average external-Abs DC50
[5] = OCI-LY10, 24 hrs, MSD, read-out: IRAK4 MSD degradation in OCI-LY10 at 24 hrs: Average external-Abs DC50
[6] = 20 hr, flow assay, read-out: IRAK4 degradation in hPBMC monocyte at 20 hr: Average external Abs DC50
[7] = OCI-LY10, 4 hrs, read-out: IRAK4 MSD degradation in OCI-LY10 at 4 hrs: DC50

T1 sequence (Q9NWZ3 whole entry): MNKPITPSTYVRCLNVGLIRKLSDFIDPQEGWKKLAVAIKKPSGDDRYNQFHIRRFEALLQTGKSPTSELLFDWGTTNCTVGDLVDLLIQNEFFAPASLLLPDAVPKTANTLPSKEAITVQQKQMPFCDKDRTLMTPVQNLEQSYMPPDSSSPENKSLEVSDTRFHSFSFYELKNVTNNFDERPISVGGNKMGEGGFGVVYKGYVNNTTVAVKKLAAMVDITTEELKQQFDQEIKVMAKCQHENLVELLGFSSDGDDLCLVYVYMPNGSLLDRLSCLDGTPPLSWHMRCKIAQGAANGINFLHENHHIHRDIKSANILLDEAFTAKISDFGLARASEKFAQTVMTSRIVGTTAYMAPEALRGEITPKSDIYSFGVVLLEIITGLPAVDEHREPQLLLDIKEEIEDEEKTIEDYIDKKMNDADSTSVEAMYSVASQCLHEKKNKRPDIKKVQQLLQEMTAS

Row | SMILES | DC50 (IRAK4 [1]; [3]) [nM] | IC50 (OCI-LY10) [nM] | DC50 (IRAK4 [2]; [4]) [nM] | DC50 (IRAK4 [2]; [5]) [nM] | DC50 (IRAK4 [1]; [6]) [nM] | DC50 (IRAK4 [2]; [7]) [nM] | DC50 (IRAK4 [2]; OCI-LY10, 24 hrs, read-out: IRAK4 MSD degradation in OCI-LY10 at 24 hrs: DC50) [nM]
1 | C[C@@H]1CC(OCCc2cccc3c2n(C)c(=O)n3C2CCC(=O)NC2=O)C[C@H](C)N1C[C@H]1CC[C@H](n2cc(NC(=O)c3cnn4ccc(N5C[C@H]6C[C@@H]5CO6)nc34)c(C(F)F)n2)CC1 (some centres unmarked) [I-558] | < 10 | > 1000 |  |  |  |  | 
2 | CC(C)(O)c1cc2nn([C@H]3CC[C@H](CN4CCC(COCCCNc5cccc6c5C(=O)N(C5CCC(=O)NC5=O)C6=O)CC4)CC3)cc2cc1NC(=O)c1cccc(C(F)(F)F)n1 (some centres unmarked) [I-376] |  | 100 to 500 | 10 to 100 | 10 to 100 | < 10 |  | 
3 | Cn1c(=O)n(C2CCC(=O)NC2=O)c2cccc(CCCOC3CCN(C[C@H]4CC[C@H](n5cc(NC(=O)c6cnn7ccc(N8C[C@H]9CC[C@@H](C8)O9)nc67)c(C(F)F)n5)CC4)CC3)c21 (some centres unmarked) [I-521] | < 10 | > 1000 |  |  |  | 10 to 100 | 
4 | C[C@@H](C#Cc1cccc2c1n(C)c(=O)n2C1CCC(=O)NC1=O)OC1CCN(C[C@H]2CC[C@H](n3cc(NC(=O)c4cnn5ccc(N6C[C@H]7C[C@@H]6CO7)nc45)c(C(F)F)n3)CC2)CC1 (some centres unmarked) [I-544] | 100 to 1000 | > 1000 |  |  |  | 10 to 100 | 
5 | O=C1CCC(n2c3cccc(CCCN4CC5(CCN(C(=O)[C@H]6CC[C@H](n7cc(NC(=O)c8cnn9ccc(N%10C[C@H]%11C[C@@H]%10CO%11)nc89)c(C(F)F)n7)CC6)CC5)C4)c3c3cccnc32)C(=O)N1 (some centres unmarked) [I-445] | < 10 | > 1000 |  |  |  | 10 to 100 | 
6 | Cn1c(=O)n(C2CCC(=O)NC2=O)c2cccc(C#CCC3CCN(C[C@H]4CC[C@H](n5cc(NC(=O)c6cnn7ccc(N8CCCOCC8)nc67)c(C(F)F)n5)CC4)CC3)c21 (some centres unmarked) [I-523] | < 10 | > 1000 |  |  |  | < 10 | 
7 | Cn1c(=O)n(C2CCC(=O)NC2=O)c2cccc(C#CCOC3CCN(C[C@H]4CC[C@H](n5cc(NC(=O)c6cnn7ccc(N8CCCOCC8)nc67)c(C(F)F)n5)CC4)CC3)c21 (some centres unmarked) [I-522] | < 10 | 100 to 500 |  |  |  | < 10 | 
8 | CC(C)(O)c1cc2nn([C@H]3CC[C@H](CN4CCC5(CC4)CC(Nc4cccc6c4C(=O)N(C4CCC(=O)NC4=O)C6=O)C5)CC3)cc2cc1NC(=O)c1cccc(C(F)(F)F)n1 (some centres unmarked) [I-326] |  | < 50 | < 10 | < 10 | < 10 |  | 
9 | O=C1CCC(n2c3cccc(CCCN4CC5(CCN(C[C@H]6CC[C@H](n7cc(NC(=O)c8cnn9ccc(N%10C[C@H]%11C[C@@H]%10CO%11)nc89)c(C(F)F)n7)CC6)CC5)C4)c3c3cccnc32)C(=O)N1 (some centres unmarked) [I-519] | 100 to 1000 | 100 to 500 |  |  |  | 10 to 100 | 
10 | Cn1c(=O)n(C2CCC(=O)NC2=O)c2cccc(CCCN3CC4CN(C(=O)[C@H]5CC[C@H](n6cc(NC(=O)c7cnn8ccc(N9C[C@H]%10C[C@@H]9CO%10)nc78)c(C(F)F)n6)CC5)CC4C3)c21 (some centres unmarked) [I-449] | < 10 | > 1000 |  |  |  | < 10 | 
11 | Cn1c(=O)n(C2CCC(=O)NC2=O)c2cccc(CCCC3CCN(C[C@H]4CC[C@H](n5cc(NC(=O)c6cnn7ccc(N8CCCOCC8)nc67)c(C(F)F)n5)CC4)CC3)c21 (some centres unmarked) [I-524] | < 10 | > 1000 |  |  |  | < 10 | 
12 | Cn1c(=O)n(C2CCC(=O)NC2=O)c2ccc(C#CCCCNC[C@H]3CC[C@H](n4cc(NC(=O)c5cnn6ccc(N7C[C@H]8C[C@@H]7CO8)nc56)c(C(F)F)n4)CC3)cc21 (stereo in doubt) [I-512, N-[3-(difluoromethyl)-1-[4-[[5-[1-(2,6-dioxo-3-piperidyl)-3-methyl-2-oxo-benzimidazol-5-yl]pent-4-ynylamino]methyl]cyclohexyl]pyrazol-4-yl]-5-(2-oxa-5-azabicyclo[2.2.1]heptan-5-yl)pyrazolo[1,5-a]pyrimidine-3-carboxamide] | 100 to 1000 | > 1000 |  |  |  | > 1000 | 
13 | Cn1c(=O)n(C2CCC(=O)NC2=O)c2cccc(CCC(=O)N3CC4(CCN(C[C@H]5CC[C@H](n6cc(NC(=O)c7cnn8ccc(N9C[C@H]%10C[C@@H]9CO%10)nc78)c(C(F)F)n6)CC5)CC4)C3)c21 (some centres unmarked) [I-410] |  | > 1000 | 10 to 100 |  | < 10 |  | 
14 | CN(C[C@H]1CC[C@H](n2cc3cc(NC(=O)c4cccc(C(F)(F)F)n4)c(C(C)(C)O)cc3n2)CC1)C1CCC2(CC1)CC(CNc1cccc3c1C(=O)N(C1CCC(=O)NC1=O)C3=O)C2 (some centres unmarked) [I-331] |  | < 50 | 10 to 100 | < 10 | 10 to 100 |  | 
15 | Cn1c(=O)n(C2CCC(=O)NC2=O)c2cccc(CCCN3CC4(CCN(C(=O)[C@H]5CC[C@H](n6cc(NC(=O)c7cnn8ccc(N9C[C@H]%10C[C@@H]9CO%10)nc78)c(C(F)F)n6)CC5)CC4)C3)c21 (some centres unmarked) [I-407] |  | > 1000 | < 10 |  | < 10 |  | 
16 | Cn1c(=O)n(C2CCC(=O)NC2=O)c2cccc(CC3CCN(c4ccc(CN5CCC(n6cc(NC(=O)c7cnn8ccc(N9C[C@H]%10C[C@@H]9CO%10)nc78)c(C(F)F)n6)CC5)cc4)CC3)c21 (some centres unmarked) [I-520] | < 10 | > 1000 |  |  |  | 10 to 100 | 
17 | C[C@H](CCc1cccc2c1n(C)c(=O)n2C1CCC(=O)NC1=O)OC1CCN(C[C@H]2CC[C@H](n3cc(NC(=O)c4cnn5ccc(N6C[C@H]7C[C@@H]6CO7)nc45)c(C(F)F)n3)CC2)CC1 (some centres unmarked) [I-557] | < 10 | > 1000 |  |  |  | < 10 | 
18 | O=C1CCC(N2C(=O)c3cccc(NCC4CCN(C[C@H]5CC[C@H](n6cc(NC(=O)c7cnn8ccc(N9C[C@H]%10CC9CO%10)nc78)c(C(F)F)n6)CC5)CC4)c3C2=O)C(=O)N1 (some centres unmarked) [I-442] | 100 to 1000 | < 50 |  |  |  | 100 to 1000 | 
19 | CN(CCCC#Cc1cccc2c1n(C)c(=O)n2C1CCC(=O)NC1=O)C[C@H]1CC[C@H](n2cc(NC(=O)c3cnn4ccc(N5C[C@H]6C[C@@H]5CO6)nc34)c(C(F)F)n2)CC1 (stereo partly drawn) [I-550, 5-((1R,4R)-2-oxa-5-azabicyclo[2.2.1]heptan-5-yl)-N-(3-(difluoromethyl)-1-((1r,4R)-4-(((5-(1-(2,6-dioxopiperidin-3-yl)-3-methyl-2-oxo-2,3-dihydro-1H-benzo [d]imidazol-4-yl)pent-4-yn-1-yl)(methyl)amino)methyl)cyclohexyl)-1H-pyrazol-4-yl)pyrazolo[1,5-a] pyrimidine-3-carboxamide] | < 10 |  |  |  |  | 10 to 100 | 
20 | Cc1ccc(-c2nn([C@H]3CC[C@H](CN4CCC(OCCCc5cccc6c5n(C)c(=O)n6C5CCC(=O)NC5=O)CC4)CC3)cc2NC(=O)c2cnn3ccc(N4C[C@H]5C[C@@H]4CO5)nc23)nc1 (some centres unmarked) [I-484] | 100 to 1000 | > 1000 |  |  |  | 100 to 1000 | 
21 | CN(CCCO[C@H]1C[C@H](Nc2cccc3c2C(=O)N(C2CCC(=O)NC2=O)C3=O)C1)C[C@H]1CC[C@H](n2cc(NC(=O)c3cnn4ccc(N5C[C@H]6C[C@@H]5CO6)nc34)c(C(F)F)n2)CC1 (some centres unmarked) [I-444] | < 10 | < 50 |  |  |  | 100 to 1000 | < 10
22 | CN(CCCOCCCNc1cccc2c1C(=O)N(C1CCC(=O)NC1=O)C2=O)C[C@H]1CC[C@H](n2cc3cc(NC(=O)c4cccc(C(F)(F)F)n4)c(C(C)(C)O)cc3n2)CC1 (some centres unmarked) [I-333] |  | 100 to 500 | 10 to 100 | 10 to 100 | < 10 |  | 
23 | C[C@H](/C=C/c1cccc2c1n(C)c(=O)n2C1CCC(=O)NC1=O)OC1CCN(C[C@H]2CC[C@H](n3cc(NC(=O)c4cnn5ccc(N6C[C@H]7C[C@@H]6CO7)nc45)c(C(F)F)n3)CC2)CC1 (some centres unmarked) [I-559] | < 10 | > 1000 |  |  |  |  | 
24 | Cn1c(=O)n(C2CCC(=O)NC2=O)c2cccc(CCCC3CCN(C[C@H]4CC[C@H](C5N=C(NC(=O)c6cnn7ccc(N8CCOC9(CCC9)C8)nc67)C(C(F)F)=N5)CC4)CC3)c21 (some centres unmarked) [I-538] | < 10 |  |  |  |  | 10 to 100 | 
25 | Cn1c(=O)n(C2CCC(=O)NC2=O)c2cccc(CCCC3CCN(C[C@H]4CC[C@H](C5N=C(NC(=O)c6cnn7ccc(N8C[C@H]9CC[C@@H](C8)O9)nc67)C(C(F)F)=N5)CC4)CC3)c21 (some centres unmarked) [I-535] | < 10 |  |  |  |  | < 10 | 
26 | Cn1c(=O)n(C2CCC(=O)NC2=O)c2cccc(CCCOC3CCN(C[C@H]4CC[C@H](n5cc(NC(=O)c6cnn7ccc(N8CCOC(C)(C)C8)nc67)c(C(F)F)n5)CC4)CC3)c21 (some centres unmarked) [I-539] | < 10 |  |  |  |  | 10 to 100 | 
